# Laboratory results as given in US20240067621A1, “POLYFLUORINATED CANNABINOID AND CANNABINOID-LIKE COMPOUNDS AND METHODS OF SYNTHESIS AND USE THEREOF” (The Board of Regents For The Oklahoma Agricultural And …, priority 2021, published 2024).
# Tested on: cannabinoid receptors
# Conditions: natural (trans) THC versus its cis counterpart; cited from earlier work
row,SMILES,affinity for cannabinoid receptors
1,"CCCCCc1cc(O)c2c(c1)OC(C)(C)[C@@H]1CCC(C)=C[C@@H]21 [THC, trans-Δ^9 -tetrahydrocannabinol]",higher affinity

# Tested on: not given
# Conditions: not given
row,SMILES,melting point [°C]
1,COC(=O)C1=CCC(OC(=O)OC(C)(C)C)=CC1c1c(F)c(F)c(C#N)c(F)c1F (centres unmarked),104 to 105
2,COC(=O)C1=CCC(C)=CC1c1c(F)c(F)c(C(F)(F)F)c(F)c1F (centres unmarked),104 to 105
3,COC(=O)C1=CCC(C(C)(C)C)=CC1c1c(F)c(F)nc(F)c1F (centres unmarked),59 to 60
4,COC(=O)C1=CCC(C)=CC1c1c(F)c(F)c(C(=O)OC)c(F)c1F (centres unmarked),91 to 95
5,COC(=O)C1=CCC(C)=CC1c1c(F)c(F)nc(F)c1F (centres unmarked),93 to 96
6,CC1=CC(c2c(F)c(F)c(C#N)c(F)c2F)C(C#N)=CC1 (centres unmarked),117 to 120
7,COC(=O)C1=CCC(C(C)(C)C)=CC1c1c(F)c(F)c(C#N)c(F)c1F (centres unmarked),108 to 110
